From ChEMBL document CHEMBL3430912, “GSK Tres Cantos Anti-Kinetoplastid Screening (TCAKS) Data”

Legend:
Trypanosoma cruzi [1] = assay: GSK_TCAKS: pIC50 Trypanosoma cruzi viability assay using beta-GAL activity. This assay was run at single shot at 5uM compound concentration per well. The biological reagents consisted of NIH-3T3 host cells and trypomastigotes parasitic cells; both cell types were set to a 3.3 * 10^5 cells/mL dilution in assay DMEM by means of a CASY cell counter device using a 60um capillary. 6 uL of the mixture were dispensed per well (about 1 * 10^3 host-cells and 1 * 10^3 parasites) with a Multidrop Combi dispenser. […] In all wells, the percentage of DMSO never exceeded 0.5%. Plates incubated for four days at 37C, 5% CO2. The substrate used for the assay fluorescence intensity (FLINT) readout was resorufin-beta-D-galactopiranoside (Sigma-Aldrich) at 5uM per well. It was diluted in PBS supplemented with the soft detergent Igepal (Fluka).; type: functional, organism-based, Mus musculus; conditions: Tulahuen, NIH3T3
Trypanosoma cruzi [2] = assay: (§1) GSK_TCAKS: pIC50 Trypanosoma cruzi Imaging: Infected Cells. […] Cells were then washed once with PBS before infection. T. cruzi trypomastigotes, collected at days 5 to 8 after infection from LLC-MK2 parasite infected cultures, were allowed to swim out for 4h at 37C from a centrifuged pellet (2,500 rpm/10 min/room temperature). Trypomastigotes were then collected and counted in a CASY Cell Counter. Trypomastigotes, in supplemented DMEM, were added to H9c2 cultures in a multiplicity of infection of 1 and incubated for 18 h. Cells were washed once with PBS before incubation of the infected H9c2 monolayer with trypsin (Life-Technologies) to detach cells from the flask. Cells were counted in a CASY Cell Counter using a 150 um capillary and their density set at 5 * 10^4 cells per mL in supplemented assay DMEM. Infected H9c2 were dispensed into 384-well poly-lysine coated assay plates at 50uL per well using a Multidrop Combi dispenser. After seeding them, the plates were incubated at 37C, 5% CO2 for 72h. Cultures were then fixed and stained by addition of 50 uL of a solution containing 8% formaldehyde and 4 uM DRAQ5 DNA dye (BioStatus, UK) per well. […] Five images were collected per well for reliable statistical analysis. Automated image analysis was performed with a script developed on Acapella High Content Imaging and Analysis Software (PerkinElmer). Output: percentage of infected cells per well as a second infection marker.; type: functional, organism-based, Rattus norvegicus; conditions: H9c2, 4 h
Trypanosoma cruzi [3] = assay: GSK_TCAKS: pIC50 Trypanosoma cruzi Imaging: Amastigotes/Cell. […] Cells were then washed once with PBS before infection. T. cruzi trypomastigotes, collected at days 5 to 8 after infection from LLC-MK2 parasite infected cultures, were allowed to swim out for 4h at 37C from a centrifuged pellet (2,500 rpm/10 min/room temperature). Trypomastigotes were then collected and counted in a CASY Cell Counter. Trypomastigotes, in supplemented DMEM, were added to H9c2 cultures in a multiplicity of infection of 1 and incubated for 18 h. Cells were washed once with PBS before incubation of the infected H9c2 monolayer with trypsin (Life-Technologies) to detach cells from the flask. Cells were counted in a CASY Cell Counter using a 150 um capillary and their density set at 5 * 10^4 cells per mL in supplemented assay DMEM. Infected H9c2 were dispensed into 384-well poly-lysine coated assay plates at 50uL per well using a Multidrop Combi dispenser. After seeding them, the plates were incubated at 37C, 5% CO2 for 72h. Cultures were then fixed and stained by addition of 50 uL of a solution containing 8% formaldehyde and 4 uM DRAQ5 DNA dye (BioStatus, UK) per well. […] Five images were collected per well for reliable statistical analysis. Automated image analysis was performed with a script developed on Acapella High Content Imaging and Analysis Software (PerkinElmer). Output: number of amastigotes per cell as infection level measurement.; type: functional, organism-based, Rattus norvegicus; conditions: H9c2, 4 h
Trypanosoma cruzi [4] = assay: as §1, with “H2C9” for “Trypanosoma cruzi”, “H9c2 Host Cardiomyocytes.” for “Infected Cells.”, “Number” for “percentage”, “H9c2 Host Cardiomyocytes nuclei to determine drug-related cytotoxicity.” for “infected cells per well as a second infection marker.”; type: functional, organism-based, Rattus norvegicus; conditions: H9c2, 4 h
Leishmania donovani [5] = assay: GSK_TCAKS: pIC50 Leishmania donovani viability assay using fluorescence intensity. Assay plates (1536-well) were prepared by adding 30nL per well of compound. For single shot assay, the final compound concentration was 5uM. […] Briefly, eGFP LdBOB axenic amastigotes were harvested, fixed and counted in a CASY cell counter (Roche-Applied Science). A final concentration of 1.5 * 10^5 cells per well were prepared in amastigote media containing 500 U/mL penicillin/streptomycin (Invitrogen) and 6uL was dispensed to each experimental well using a Multidrop Combi dispenser (Thermo Scientific). 6uL of assay media was dispensed to control columns used as reference for 100% compound response. Following incubation for 72 h at 37C, 5% CO2, 2 uL of resazurin was added to each well at a final concentration of 0.5 mM in phosphate buffered saline (PBS) with IGEPAL (Sigma-Aldrich), 0.05% (v/v).; type: functional, organism-based
Leishmania donovani [6] = assay: (§2) GSK_TCAKS: pIC50 Leishmania donovani Imaging: Infected Macrophages. Assay plates (384-well) were prepared by adding 250nL of compound to each well. For single shot assay, the final compound concentration was 5 uM. […] Automated image analysis was performed with a script developed on Acapella High Content Imaging and Analysis Software (PerkinElmer). Output: Percent of infected macrophage cells were reported for each well.; type: functional, organism-based, Homo sapiens; conditions: THP-1
Leishmania donovani [7] = assay: as §2, with “Amastigotes/Macrophages.” for “Infected Macrophages.”, “Average number” for “Percent”, “amastigotes per” for “infected”, “cell” for “cells”; type: functional, organism-based, Homo sapiens; conditions: THP-1
Leishmania donovani [8] = assay: as §2, with “THP-1 Host” for “Infected”, “THP-1 cell count” for “Percent of infected macrophage cells”; type: functional, organism-based, Homo sapiens
[9] = tested on: Trypanosoma brucei brucei; assay: GSK_TCAKS: pIC50 Trypanosoma brucei viability assay using fluorescence intensity. Assay plates (1536-well) were prepared by dispensing 25nL of compound solution per well using an Echo acoustic dispenser (Labcyte).; type: functional, organism-based; conditions: Lister 427, 2 h
[10] = tested on: Trypanosoma brucei brucei; assay: GSK_TCAKS: pIC50 Trypanosoma brucei viability assay using luminiscence. Assay plates (1536-well) were prepared. T. brucei cultures were harvested and counted in a CASY cell counter. A parasite suspension was prepared at a final concentration of 5 * 10^4 cells/mL in complete HMI9 medium and 6uL was dispensed to all wells containing compounds using a Multidrop Combi dispenser. 6uL of HMI9 media with 0.4% DMSO were dispensed to control columns. Plates were incubated for 24 h at 37C, 5% CO2 then tempered for 10 min at room temperature. ATP content was quantified by adding 4 uL of CellTiter-Glo Reagent (Promega) according to the manufacturer's instructions. Luminescence was measured using a ViewLux.; type: functional, organism-based; conditions: Lister 427, CASY
[11] = GSK_TCAKS: pIC50 HepG2 human cell line viability assay using luminiscence. […] Seeding density was checked to ensure that new mono-layers were not more than 50% confluent at the time of harvesting. Cell suspension was added to 500 mL of the same medium at a final density of 1.2 * 10^5 cells/mL. This cell suspension was dispensed (25 uL, 3000 cells per well) into 384-well clear-bottom plates using a Multidrop Combi dispenser. Prior to addition of the cell suspension, the screening compounds (250 nL) were pre-dispensed into the plates with an Echo liquid handler. Plates were incubated for 48 h at 37C, 5% CO2. After incubation, plates equilibrated at room temperature for 30 min before proceeding to develop the luminescent signal. The signal developer, CellTiter-Glo Reagent, was allowed to equilibrate at room temperature for 30 min and added to the plates (25uL per well) using a Multidrop Combi dispenser. Plates were left for 10 min at room temperature for stabilization and then read using a ViewLux.; type: toxicity, cell-based
NIH3T3 = assay: GSK_TCAKS: pIC50 NIH 3T3 cell line viability assay using luminiscence. Tissue culture surface treated assay plates (1536-well) were used. […] The 100% cells survival control was determined exposing the host-cells to a 0.5% DMSO concentration, whereas the 100% toxicity control was achieved by seeding the cells in presence of Amphotericin B at 50uM. Plates were incubated for four days at 37C, 5% CO2. The assay readout was developed by addition of 5uL of CellTiter-Glo Reagent following the manufacturer's instructions. Luminiscence was measured using a ViewLux.; type: functional, cell-based; conditions: Mus musculus, NIH3T3, 96 h
[12] = target: Sterol 14-alpha demethylase (Trypanosoma cruzi (strain CL Brener), UniProt Q7Z1V1); assay: GSK_TCAKS: pIC50 CYP51 from Trypanosoma cruzi.; type: functional
Sterol 14-alpha demethylase, sequence (Q7Z1V1 whole entry): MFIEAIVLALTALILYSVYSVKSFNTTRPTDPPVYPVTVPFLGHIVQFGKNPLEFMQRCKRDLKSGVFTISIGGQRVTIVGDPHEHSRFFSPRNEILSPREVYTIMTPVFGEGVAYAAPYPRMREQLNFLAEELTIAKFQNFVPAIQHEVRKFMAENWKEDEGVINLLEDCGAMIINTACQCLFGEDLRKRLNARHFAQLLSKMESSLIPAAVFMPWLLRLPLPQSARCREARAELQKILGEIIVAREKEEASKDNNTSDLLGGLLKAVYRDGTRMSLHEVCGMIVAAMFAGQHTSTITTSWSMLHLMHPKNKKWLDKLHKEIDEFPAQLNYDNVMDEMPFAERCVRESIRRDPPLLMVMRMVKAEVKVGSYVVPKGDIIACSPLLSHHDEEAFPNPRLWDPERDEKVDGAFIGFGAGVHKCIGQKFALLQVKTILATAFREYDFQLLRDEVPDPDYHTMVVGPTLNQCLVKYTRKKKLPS

Row | SMILES | IC50 (Trypanosoma cruzi [1]) [nM] | IC50 (Trypanosoma cruzi [2]) [nM] | IC50 (Trypanosoma cruzi [3]) [nM] | IC50 (Trypanosoma cruzi [4]) [µM] | IC50 (Leishmania donovani [5]) [µM] | IC50 (Leishmania donovani [6]) [µM] | IC50 (Leishmania donovani [7]) [µM] | IC50 (Leishmania donovani [8]) [µM] | IC50 [9] [µM] | IC50 [10] [µM] | IC50 at 48 h [11] [µM] | IC50 (NIH3T3) [µM] | IC50 [12] [µM]
1 | O=S(=O)(NCC(c1cccnc1)N1CCN(c2ccc(F)cc2)CC1)c1cccs1 (stereo not given) | 158 | 126 | 126 | > 50.1 | > 50.1 | > 50.1 | > 50.1 | > 50.1 | > 39.8 | > 39.8 | > 100 | > 50.1 | 0.0398
2 | Cc1ccc(C)c(-n2nnnc2Sc2nc([N+](=O)[O-])nn2C)c1 | 501 | 794 | 251 | > 50.1 | > 50.1 | > 50.1 | > 50.1 | > 50.1 | 12.6 | 15.8 | > 100 | > 50.1 | > 100
3 | COc1ccc2nccc([C@H](O)CN3CC[C@H](NC(=O)c4ccc(Br)cc4)[C@@H](O)C3)c2n1 | 251 | 1580 | 158 | 2 | 3.16 | > 50.1 | > 50.1 | > 50.1 | 0.2 | 0.501 | > 100 | > 50.1 | 6.31
4 | O=C(Nc1cccc(Cl)c1)N1CCCCC1c1cccnc1 (stereo not given) | 178 | 200 | 200 | > 50.1 | 3.16 | > 50.1 | > 50.1 | > 50.1 | > 39.8 | > 39.8 | > 100 | 31.6 | 0.02
5 | CC(CNS(=O)(=O)c1ccc(OC(F)F)cc1)c1ccc(NC(=O)c2ccncc2)cc1 (stereo not given) | 200 | 100 | 79.4 | > 50.1 | > 50.1 | > 50.1 | 5.01 | 15.8 | 7.94 | 20 | 100 | > 50.1 | 0.0501
6 | Cn1cc(CN2CCN(c3ccc4c(c3)CCN(C(=O)[C@H]3C[C@@H]3c3ccccc3)CC4)CC2)cn1 | 1580 | 3160 | 794 | 31.6 | 0.631 | 31.6 | 1 | 6.31 | 25.1 | 39.8 | 50.1 | 20 | 15.8
7 | Cc1ccc(S(=O)(=O)Cn2nnnc2C(c2cccnc2)N2CCN(c3ccccc3)CC2)cc1 (stereo not given) | 501 | 316 | 316 | > 50.1 | 1 | > 50.1 | > 50.1 | > 50.1 | 31.6 | > 39.8 | > 100 | 31.6 | 0.2
8 | Cc1cc(C#N)c([N+](=O)[O-])cc1Br | 200 | 316 | 50.1 | 50.1 | 25.1 | 39.8 | 31.6 | 25.1 | 0.794 | 3.98 | 31.6 | 20 | 7.94
9 | CC(C(=O)Nc1ccc(Br)cc1)N1CCN(c2ccc([N+](=O)[O-])cc2)CC1 (stereo not given) | 2510 | 2510 | 3160 | > 50.1 | > 50.1 | > 50.1 | > 50.1 | > 50.1 | > 39.8 | > 39.8 | > 100 | > 50.1 | 39.8
10 | Cc1cc2ncn(-c3ccc([N+](=O)[O-])cc3C#N)c2cc1C | 1260 | 2000 | 794 | > 50.1 | > 50.1 | > 50.1 | > 50.1 | > 50.1 | 20 | > 39.8 | > 100 | > 50.1 | > 100
11 | O=C(CN(c1cccc(C(F)(F)F)c1)S(=O)(=O)c1ccc(Cl)cc1)NCc1ccc(F)c(F)c1 | 794 | 794 | 501 | > 50.1 | > 50.1 | > 50.1 | > 50.1 | 20 | 10 | 25.1 | > 100 | 31.6 | 0.158
12 | COc1ccc(S(=O)(=O)NCc2ccc(-c3ccc(CN(C)CCO)cc3)cc2)cc1 | 39.8 | 2510 | 1260 | > 50.1 | > 50.1 | 15.8 | 20 | 20 | 3.16 | 3.16 | 50.1 | 15.8 | 15.8
13 | CCCN1CCN(Cc2ccc(S(=O)(=O)Nc3cccc(C)c3)cc2)CC1 | 794 | 794 | 631 | > 50.1 | 25.1 | > 50.1 | > 50.1 | > 50.1 | 25.1 | > 39.8 | > 100 | 25.1 | > 100
14 | O=C(CSc1ccc(-c2ccccn2)nn1)Nc1ccc(Cl)cc1 | 2510 | 2510 | 2000 | > 50.1 | > 50.1 | > 50.1 | > 50.1 | > 50.1 | 10 | > 39.8 | > 100 | 31.6 | > 100
15 | COc1ccc([N+](=O)[O-])cc1NC(=O)Nc1cccc(Cl)c1 | 794 | 10000 | 398 | > 50.1 | > 50.1 | > 50.1 | > 50.1 | 50.1 | 6.31 | 20 | > 100 | > 50.1 | > 100
